Activity calls are given as the source filed them. The rule behind the calls is not given here. Non-standard residues stand in square brackets, D forms with d. Residues, ends and D or L forms follow the SMILES beside them. 1Nal = N[C@@H](Cc1cccc2ccccc12)C(=O)O; 2Nal = N[C@@H](Cc1ccc2ccccc2c1)C(=O)O
How the values were obtained:
[1] = molecular target: Sodium channel protein type 9 subunit alpha (Homo sapiens) (UniProt Q15858); assay: Activation of human Nav1.7 expressed in HEK293 cells assessed as ratio of compound activation AUC to baseline activation AUC at 3.3 uM at -120 mV holding potential by Qpatch assay; assay type: cell-based
[2] = molecular target: Sodium channel protein type 3 subunit alpha (Homo sapiens) (UniProt Q9NY46); assay: Activation of human Nav1.3 expressed in CHOK1 cells assessed as ratio of compound activation AUC to baseline activation AUC at 3.3 uM at -120 mV holding potential by Qpatch assay; assay type: cell-based
Sequence of Sodium channel protein type 3 subunit alpha (Homo sapiens) (Q9NY46 whole entry, looked up): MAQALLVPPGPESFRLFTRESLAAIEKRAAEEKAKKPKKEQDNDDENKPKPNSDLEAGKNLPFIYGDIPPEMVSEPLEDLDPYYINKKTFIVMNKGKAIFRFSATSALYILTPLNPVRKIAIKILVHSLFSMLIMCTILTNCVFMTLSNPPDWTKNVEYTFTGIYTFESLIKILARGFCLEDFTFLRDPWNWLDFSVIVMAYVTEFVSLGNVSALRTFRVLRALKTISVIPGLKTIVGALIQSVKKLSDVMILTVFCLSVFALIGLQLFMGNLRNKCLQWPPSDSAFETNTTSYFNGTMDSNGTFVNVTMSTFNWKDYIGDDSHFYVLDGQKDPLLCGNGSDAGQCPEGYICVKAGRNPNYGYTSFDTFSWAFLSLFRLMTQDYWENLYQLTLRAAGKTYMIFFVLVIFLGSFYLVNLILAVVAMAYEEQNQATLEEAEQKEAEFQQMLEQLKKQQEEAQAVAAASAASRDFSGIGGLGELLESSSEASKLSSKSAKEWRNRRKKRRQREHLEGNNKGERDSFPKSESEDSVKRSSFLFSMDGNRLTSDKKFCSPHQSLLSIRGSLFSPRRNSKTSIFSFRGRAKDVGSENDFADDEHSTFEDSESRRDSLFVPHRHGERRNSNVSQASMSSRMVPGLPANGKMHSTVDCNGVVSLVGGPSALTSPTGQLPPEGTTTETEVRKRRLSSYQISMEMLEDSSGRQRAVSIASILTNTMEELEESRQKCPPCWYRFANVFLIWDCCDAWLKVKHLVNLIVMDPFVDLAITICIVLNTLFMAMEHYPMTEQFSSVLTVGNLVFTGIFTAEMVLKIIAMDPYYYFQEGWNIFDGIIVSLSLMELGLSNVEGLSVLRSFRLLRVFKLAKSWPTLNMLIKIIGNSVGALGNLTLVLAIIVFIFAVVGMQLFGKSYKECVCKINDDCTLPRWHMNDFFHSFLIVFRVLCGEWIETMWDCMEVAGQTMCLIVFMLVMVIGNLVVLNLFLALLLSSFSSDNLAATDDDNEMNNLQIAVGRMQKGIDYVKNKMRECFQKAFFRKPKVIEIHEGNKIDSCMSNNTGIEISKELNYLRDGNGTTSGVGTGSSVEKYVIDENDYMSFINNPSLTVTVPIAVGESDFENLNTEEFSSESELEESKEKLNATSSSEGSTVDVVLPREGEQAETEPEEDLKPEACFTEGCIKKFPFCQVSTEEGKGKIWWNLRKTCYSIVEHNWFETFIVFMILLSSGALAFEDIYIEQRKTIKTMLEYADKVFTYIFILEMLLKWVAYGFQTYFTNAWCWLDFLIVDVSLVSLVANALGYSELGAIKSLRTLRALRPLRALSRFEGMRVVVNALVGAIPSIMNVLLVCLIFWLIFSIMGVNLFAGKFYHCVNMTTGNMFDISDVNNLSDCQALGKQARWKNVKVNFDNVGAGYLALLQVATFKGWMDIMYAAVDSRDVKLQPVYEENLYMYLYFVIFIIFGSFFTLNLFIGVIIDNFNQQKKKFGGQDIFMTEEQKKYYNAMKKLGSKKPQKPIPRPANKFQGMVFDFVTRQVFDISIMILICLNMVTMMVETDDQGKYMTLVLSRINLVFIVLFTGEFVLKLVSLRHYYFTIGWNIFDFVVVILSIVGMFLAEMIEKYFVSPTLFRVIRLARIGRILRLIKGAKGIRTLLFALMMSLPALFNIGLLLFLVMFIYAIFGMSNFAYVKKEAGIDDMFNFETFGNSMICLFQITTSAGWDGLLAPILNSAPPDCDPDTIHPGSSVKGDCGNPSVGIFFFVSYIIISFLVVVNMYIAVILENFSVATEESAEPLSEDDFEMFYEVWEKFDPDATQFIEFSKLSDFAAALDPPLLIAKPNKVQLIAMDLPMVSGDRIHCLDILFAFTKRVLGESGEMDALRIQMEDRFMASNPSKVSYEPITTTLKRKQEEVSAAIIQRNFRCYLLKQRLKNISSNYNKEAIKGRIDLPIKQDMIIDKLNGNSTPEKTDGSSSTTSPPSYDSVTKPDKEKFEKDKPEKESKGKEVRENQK

[3] = molecular target: Sodium channel protein type 8 subunit alpha (Homo sapiens) (UniProt Q9UQD0); assay: Activation of human Nav1.6 expressed in HEK293 cells assessed as ratio of compound activation AUC to baseline activation AUC at 3.3 uM at -120 mV holding potential by Qpatch assay; assay type: cell-based
Sequence of Sodium channel protein type 8 subunit alpha (Homo sapiens) (Q9UQD0 whole entry, looked up): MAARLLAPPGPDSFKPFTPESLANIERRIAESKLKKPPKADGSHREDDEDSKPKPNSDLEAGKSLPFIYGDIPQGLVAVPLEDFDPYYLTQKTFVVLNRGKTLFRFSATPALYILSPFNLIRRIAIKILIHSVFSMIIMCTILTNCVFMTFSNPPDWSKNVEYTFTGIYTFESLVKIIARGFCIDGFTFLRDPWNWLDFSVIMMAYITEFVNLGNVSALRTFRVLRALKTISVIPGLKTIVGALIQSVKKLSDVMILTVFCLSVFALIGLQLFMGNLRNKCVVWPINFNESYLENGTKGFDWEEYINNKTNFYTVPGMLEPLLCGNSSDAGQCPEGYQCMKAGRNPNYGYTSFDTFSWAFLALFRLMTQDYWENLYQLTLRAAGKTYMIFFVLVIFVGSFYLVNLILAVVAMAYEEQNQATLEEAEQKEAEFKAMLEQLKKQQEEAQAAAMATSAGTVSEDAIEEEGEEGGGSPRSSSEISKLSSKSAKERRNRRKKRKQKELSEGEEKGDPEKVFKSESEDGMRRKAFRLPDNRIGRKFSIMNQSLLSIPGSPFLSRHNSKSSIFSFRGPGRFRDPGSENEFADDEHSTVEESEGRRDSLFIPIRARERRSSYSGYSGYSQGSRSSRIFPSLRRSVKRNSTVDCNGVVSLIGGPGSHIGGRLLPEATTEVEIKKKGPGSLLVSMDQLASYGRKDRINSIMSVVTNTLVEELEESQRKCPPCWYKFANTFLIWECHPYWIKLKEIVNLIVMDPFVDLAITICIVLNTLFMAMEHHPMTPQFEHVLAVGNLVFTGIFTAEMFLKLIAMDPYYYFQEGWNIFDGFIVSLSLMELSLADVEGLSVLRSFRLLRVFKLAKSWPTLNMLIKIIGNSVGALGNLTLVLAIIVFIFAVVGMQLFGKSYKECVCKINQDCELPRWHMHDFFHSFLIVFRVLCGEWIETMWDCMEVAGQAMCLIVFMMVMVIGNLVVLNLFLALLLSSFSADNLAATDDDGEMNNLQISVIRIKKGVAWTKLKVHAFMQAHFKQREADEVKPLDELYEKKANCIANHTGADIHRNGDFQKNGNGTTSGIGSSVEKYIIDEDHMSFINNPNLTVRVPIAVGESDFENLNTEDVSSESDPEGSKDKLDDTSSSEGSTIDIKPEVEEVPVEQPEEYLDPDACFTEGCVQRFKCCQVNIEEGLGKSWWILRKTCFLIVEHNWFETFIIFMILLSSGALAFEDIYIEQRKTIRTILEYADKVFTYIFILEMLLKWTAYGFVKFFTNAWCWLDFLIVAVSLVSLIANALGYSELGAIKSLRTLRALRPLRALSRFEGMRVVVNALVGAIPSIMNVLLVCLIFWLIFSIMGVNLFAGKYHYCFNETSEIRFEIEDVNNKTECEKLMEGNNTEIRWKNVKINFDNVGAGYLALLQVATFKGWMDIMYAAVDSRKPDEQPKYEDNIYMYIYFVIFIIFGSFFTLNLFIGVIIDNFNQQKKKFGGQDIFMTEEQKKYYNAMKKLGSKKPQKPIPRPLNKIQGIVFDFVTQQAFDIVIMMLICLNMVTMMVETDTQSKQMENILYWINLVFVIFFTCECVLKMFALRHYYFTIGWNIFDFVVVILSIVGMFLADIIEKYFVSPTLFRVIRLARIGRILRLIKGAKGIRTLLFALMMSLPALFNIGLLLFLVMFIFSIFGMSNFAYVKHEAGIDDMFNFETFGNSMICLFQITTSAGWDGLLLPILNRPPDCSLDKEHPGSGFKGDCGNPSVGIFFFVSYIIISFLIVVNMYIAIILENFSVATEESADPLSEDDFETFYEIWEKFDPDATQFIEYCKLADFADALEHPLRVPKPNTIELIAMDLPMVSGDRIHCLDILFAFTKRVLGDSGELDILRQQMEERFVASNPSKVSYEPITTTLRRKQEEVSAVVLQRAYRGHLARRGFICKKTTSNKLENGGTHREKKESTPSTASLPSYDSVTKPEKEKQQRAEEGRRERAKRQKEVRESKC

[4] = molecular target: Sodium channel protein type 2 subunit alpha (Homo sapiens) (UniProt Q99250); assay: Activation of human Nav1.2 expressed in CHOK1 cells assessed as ratio of compound activation AUC to baseline activation AUC at 3.3 uM at -120 mV holding potential by Qpatch assay; assay type: cell-based
[5] = molecular target: Sodium channel protein type 1 subunit alpha (Homo sapiens) (UniProt P35498); assay: Activation of human Nav1.1 expressed in HEK293 cells assessed as ratio of compound activation AUC to baseline activation AUC at 1.11 uM at -120 mV holding potential by Qpatch assay; assay type: cell-based
[6] = molecular target: Sodium channel protein type 4 subunit alpha (Homo sapiens) (UniProt P35499); assay: Activation of human Nav1.4 expressed in HEK293 cells assessed as ratio of compound activation AUC to baseline activation AUC at 3.3 uM at -120 mV holding potential by Qpatch assay; assay type: cell-based
[7] = molecular target: Sodium channel protein type 1 subunit alpha (Homo sapiens) (UniProt P35498); assay: Activation of human Nav1.1 expressed in HEK293 cells assessed as ratio of compound activation AUC to baseline activation AUC at 0.12 uM at -120 mV holding potential by Qpatch assay; assay type: cell-based
[8] = molecular target: Sodium channel protein type 1 subunit alpha (Homo sapiens) (UniProt P35498); assay: Activation of human Nav1.1 expressed in HEK293 cells assessed as ratio of compound activation AUC to baseline activation AUC at 0.37 uM at -120 mV holding potential by Qpatch assay; assay type: cell-based
[9] = molecular target: Sodium channel protein type 1 subunit alpha (Homo sapiens) (UniProt P35498); assay: Activation of human Nav1.1 expressed in HEK293 cells assessed as ratio of compound activation AUC to baseline activation AUC at 3.3 uM at -120 mV holding potential by Qpatch assay; assay type: cell-based
[10] = molecular target: Sodium channel protein type 5 subunit alpha (Homo sapiens, UniProt Q14524); assay: Activation of human Nav1.5 expressed in HEK293 cells assessed as ratio of compound activation AUC to baseline activation AUC at 3.3 uM at -120 mV holding potential by Qpatch assay; assay type: cell-based; details: hek293, 3.3 µM
[11] = molecular target: Sodium channel protein type 1 subunit alpha (Homo sapiens) (UniProt P35498); assay: Activation of human Nav1.1 expressed in HEK293 cells at 3.3 uM at -120 mV holding potential by Qpatch assay relative to control; assay type: cell-based
[12] = molecular target: Sodium channel protein type 1 subunit alpha (Mus musculus) (UniProt A2APX8); assay: Activation of Nav1.1 in C57BL/6 mouse GABAergic cortical neurons assessed as rescue of ICA-121431-induced neuronal firing loss at 300 nM at holding potential -65 mV by current clamp assay

SMILES	Ratio AUC [1]	Ratio AUC [2]	Ratio AUC [3]	Ratio AUC [4]	Ratio AUC [5]	Ratio AUC [6]	Ratio AUC [7]	Ratio AUC [8]	Ratio AUC [9]	Ratio AUC [10]	Activity [11]	Activity [12]
CC[C@H](C)[C@H](NC(=O)[C@H](CCCNC(=N)N)NC(=O)[C@@H](NC(=O)[C@@H](N)CCCNC(=N)N)[C@@H](C)CC)C(=O)NCC(=O)N[C@@H](CC(C)C)C(=O)N[C@@H](Cc1ccc2ccccc2c1)C(=O)N[C@@H](CC(=O)O)C(=O)N[C@@H](CCC(N)=O)C(=O)N[C@@H](CC(C)C)C(=O)N[C@@H](CC(C)C)C(=O)N[C@@H](CCCNC(=N)N)C(=O)N[C@@H](CC(C)C)C(N)=O (H-RIRIGL[2Nal]DQLLRL-NH2)	9.6	4.4	8.1	7.1	5.2	1.6	1.4	2.5	12.7	1.3	1170%	
CC[C@H](C)[C@H](NC(=O)[C@H](CCCCN)NC(=O)[C@@H](NC(=O)[C@@H](N)CCCNC(=N)N)[C@@H](C)CC)C(=O)NCC(=O)N[C@@H](CC(C)C)C(=O)N[C@@H](Cc1cccc2ccccc12)C(=O)N[C@@H](CC(=O)O)C(=O)N[C@@H](CCC(N)=O)C(=O)N[C@@H](CC(C)C)C(=O)N[C@@H](CO)C(=O)N[C@@H](CCCNC(=N)N)C(=O)N[C@@H](CC(C)C)C(N)=O (H-RIKIGL[1Nal]DQLSRL-NH2)	2.9	2	3.1	1.8	1.8	1.4	1	1.2	3.1	1.7		Active
CC[C@H](C)[C@H](NC(=O)[C@H](CCCCN)NC(=O)[C@@H](NC(=O)[C@@H](N)CCCNC(=N)N)[C@@H](C)CC)C(=O)NCC(=O)N[C@@H](CC(C)C)C(=O)N[C@@H](Cc1ccccc1)C(=O)N[C@@H](CC(=O)O)C(=O)N[C@@H](CCC(N)=O)C(=O)N[C@@H](CC(C)C)C(=O)N[C@@H](CO)C(=O)N[C@@H](CCCNC(=N)N)C(=O)N[C@@H](CC(C)C)C(N)=O (H-RIKIGLFDQLSRL-NH2)	1.1	1.2	1.3	0.9	1.1	0.8	1	1	1.4	1	40%	

From ChEMBL document CHEMBL4342489, “Structure-Activity Relationship Evaluation of Wasp Toxin β-PMTX Leads to Analogs with Superior Activity for Human Neuronal Sodium Channels” (ACS Med Chem Lett, 2020)
